Measured values taken from patent publication US10219516B2, “Molecules having pesticidal utility, and intermediates, compositions, and processes, related thereto” (priority 2015, dated 2019).

What was measured:
Assay type in all cases: in vivo
[1] = system: Yellow Fever Mosquito (Aedes aegypti, AEDSAE); test: Bioassay on Yellow Fever Mosquito (YFM), 96-well plate larval assay; conditions: Yellow Fever Mosquito, 96-well plate larval assay
Method in brief: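 Aedes aegypti larvae (about 1 day old) in liver-powder water were added to plates dispensed from DMSO master plates (4000 ppm stock) diluted with 90:10 water/acetone; six replicate plates per master. Lidded plates were held at room temperature for 3 days, then each well was scored for mortality.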

[2] = system: Beet Armyworm (Spodoptera exigua, LAPHEG); test: Bioassay on Beet Armyworm (BAW), 128-well diet tray assay; conditions: Beet Armyworm, 128-well diet tray assay, read-out: BAW rating
Method in brief: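 Second instar larvae were exposed to diet treated at 50 μg/cm^2 for five to seven days at 25° C.; mortality was averaged over eight wells.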

[3] = system: Cabbage Looper (Trichoplusia ni, TRIPNI); test: Bioassay on Cabbage Looper (CL), 128-well diet tray assay; conditions: Trichoplusia ni; Cabbage Looper, 128-well diet tray assay; read-out: CL rating
Method in brief: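 Using eight wells per molecule, artificial diet was dosed at 50 μg/cm^2 with compound in 90:10 acetone-water and dried before one to five second-instar larvae were added per well. Covered vented trays were kept at 25° C. with 14:10 light-dark for five to seven days, then per-well percent mortality was recorded and averaged.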

SMILES	YFM rating [1]	pest or weed control at 50 µg/cm2 [2]	pest or weed control at 50 µg/cm2 [3]
C#Cc1cc([C@H]2[C@H](C(=O)Nc3ccc(Cl)c(C(=O)Nc4ccc(F)cc4)c3)C2(Cl)Cl)ccc1Cl (relative stereo) [F410, 2-Chloro-5-(trans-2,2-dichloro-3-(4-chloro-3-ethynylphenyl)cyclopropane-1-carboxamido)-N-(4-fluorophenyl)benzamide]	A (80-100)	50 to 100%	50 to 100%
O=C(Nc1ccc(F)cc1F)c1cc(NC(=O)[C@H]2[C@H](c3cc(F)cc(F)c3)C2(Cl)Cl)ccc1Cl (relative stereo) [F411, 2-Chloro-5-(trans)-(2,2-dichloro-3-(3,5-difluorophenyl)cyclopropane-1-carboxamido)-N-(2,4-difluorophenyl)benzamide]	A (80-100)	50 to 100%	50 to 100%
C#CCN(C(=O)c1cc(NC(=O)[C@H]2[C@H](c3cc(Cl)cc(Cl)c3)C2(Cl)Cl)ccc1Cl)c1ccc(F)cc1 (relative stereo) [F413, trans-2-Chloro-5-(2,2-dichloro-3-(3,5-dichlorophenyl)cyclopropane-1-carboxamido)-N-(4-fluorophenyl)-N-(prop-2-yn-1-yl)benzamide]	A (80-100)	50 to 100%	50 to 100%
O=C(Nc1ccc(F)cc1)c1cc(NC(=O)[C@H]2[C@H](c3ccc([N+](=O)[O-])cc3)C2(Cl)Cl)ccc1Cl (relative stereo) [F422, 2-chloro-5-(trans-2,2-dichloro-3-(4-nitrophenyl)cyclopropane-1-carboxamido)-N-(4-fluorophenyl)benzamide]	A (80-100)	50 to 100%	50 to 100%
O=C(Nc1ccc(F)cc1F)c1cc(NC(=O)[C@H]2[C@H](c3cc(Br)cc(C(F)(F)F)c3)C2(Cl)Cl)ccc1Cl (relative stereo) [F424, 5-(trans)-(3-(3-Bromo-5-(trifluoromethyl)phenyl)-2,2-dichlorocyclopropane-1-carboxamido)-2-chloro-N-(2,4-difluorophenyl)benzamide]	A (80-100)	50 to 100%	50 to 100%
O=C(Nc1ccc(-n2cccn2)cc1)c1cc(NC(=O)[C@H]2[C@H](c3cc(Cl)cc(Cl)c3)C2(Cl)Cl)ccc1Cl (relative stereo) [F440, trans-N-(4-(1H-Pyrazol-1-yl)phenyl)-2-chloro-5-(2,2-dichloro-3-(3,5-dichlorophenyl)cyclopropanecarboxamido)benzamide]	A (80-100)	50 to 100%	50 to 100%
O=C(Nc1ccc2sccc2c1)c1cc(NC(=O)[C@H]2[C@H](c3cc(Cl)cc(Cl)c3)C2(Cl)Cl)ccc1Cl (relative stereo) [F452, trans-N-(Benzo[b]thiophen-5-yl)-2-chloro-5-(2,2-dichloro-3-(3,5-dichlorophenyl)cyclopropane-1-carboxamido)benzamide]	A (80-100)	50 to 100%	50 to 100%
CN1C(=O)Cc2cc(NC(=O)c3cc(NC(=O)[C@H]4[C@H](c5cc(Cl)cc(Cl)c5)C4(Cl)Cl)ccc3Cl)ccc21 (relative stereo) [F459, 2-Chloro-5-(trans)-(2,2-dichloro-3-(3,5-dichlorophenyl)cyclopropane-1-carboxamido)-N-(1-methyl-2-oxoindolin-5-yl)benzamide]	A (80-100)	50 to 100%	50 to 100%
Cn1nc(NC(=O)c2cc(NC(=O)[C@H]3[C@H](c4cc(Cl)cc(Cl)c4)C3(Cl)Cl)ccc2Cl)c2cc(C(F)(F)F)ccc21 (relative stereo) [F460, 2-Chloro-5-(trans)-(2,2-dichloro-3-(3,5-dichlorophenyl)cyclopropane-1-carboxamido)-N-(1-methyl-5-(trifluoromethyl)-1H-indazol-3-yl)benzamide]	A (80-100)	50 to 100%	50 to 100%
O=C(Nc1ccc(-c2nccs2)cc1)c1cc(NC(=O)[C@H]2[C@H](c3cc(Cl)cc(Cl)c3)C2(Cl)Cl)ccc1Cl (relative stereo) [F461, trans-2-Chloro-5-(2,2-dichloro-3-(3,5-dichlorophenyl)cyclopropane-1-carboxamido)-N-(4-(thiazol-2-yl)phenyl)benzamide]	A (80-100)	50 to 100%	50 to 100%
O=C(Nc1cc(F)c2[nH]ccc2c1)c1cc(NC(=O)[C@H]2[C@H](c3cc(Cl)cc(Cl)c3)C2(Cl)Cl)ccc1Cl (relative stereo) [F462, 2-Chloro-5-(trans)-(2,2-dichloro-3-(3,5-dichlorophenyl)cyclopropane-1-carboxamido)-N-(7-fluoro-1H-indol-5-yl)benzamide]	A (80-100)	50 to 100%	50 to 100%
Cn1nc(NC(=O)c2cc(NC(=O)[C@H]3[C@H](c4cc(Cl)cc(Cl)c4)C3(Cl)Cl)ccc2Cl)c2c(Cl)cccc21 (relative stereo) [F463, 2-Chloro-N-(4-chloro-1-methyl-1H-indazol-3-yl)-5-(trans)-(2,2-dichloro-3-(3,5-dichlorophenyl)cyclopropane-1-carboxamido)benzamide]	A (80-100)	50 to 100%	50 to 100%
Cn1ccc2cc(NC(=O)c3cc(NC(=O)[C@H]4[C@H](c5cc(Cl)cc(Cl)c5)C4(Cl)Cl)ccc3Cl)cnc21 (relative stereo) [F464, 2-Chloro-5-(trans)-(2,2-dichloro-3-(3,5-dichlorophenyl)cyclopropane-1-carboxamido)-N-(1-methyl-1H-pyrrolo[2,3-b]pyridin-5-yl)benzamide]	A (80-100)	50 to 100%	50 to 100%
CC(=O)N(C(C)=O)c1ccc(NC(=O)c2cc(NC(=O)[C@H]3[C@H](c4cc(Cl)cc(Cl)c4)C3(Cl)Cl)ccc2Cl)c(C#N)c1 (relative stereo) [F469, trans-N-(4-(N-acetylacetamido)-2-cyanophenyl)-2-chloro-5-(2,2-dichloro-3-(3,5-dichlorophenyl)cyclopropane-1-carboxamido)benzamide]	A (80-100)	50 to 100%	50 to 100%
O=C1Cc2cc(NC(=O)c3cc(NC(=O)[C@H]4[C@H](c5cc(Cl)cc(Cl)c5)C4(Cl)Cl)ccc3Cl)ccc2N1 (relative stereo) [F472, 2-Chloro-5-(trans)-(2,2-dichloro-3-(3,5-dichlorophenyl)cyclopropane-1-carboxamido)-N-(2-oxoindolin-5-yl)benzamide]	A (80-100)	50 to 100%	50 to 100%
CN1CCc2cc(NC(=O)c3cc(NC(=O)[C@H]4[C@H](c5cc(Cl)cc(Cl)c5)C4(Cl)Cl)ccc3Cl)ccc21 (relative stereo) [F473, 2-Chloro-5-(trans)-(2,2-dichloro-3-(3,5-dichlorophenyl)cyclopropane-1-carboxamido)-N-(1-methylindolin-5-yl)benzamide]	A (80-100)	50 to 100%	50 to 100%
O=C(Nc1cc2cc[nH]c2cn1)c1cc(NC(=O)[C@H]2[C@H](c3cc(Cl)cc(Cl)c3)C2(Cl)Cl)ccc1Cl (relative stereo) [F474, 2-Chloro-5-(trans)-(2,2-dichloro-3-(3,5-dichlorophenyl)cyclopropane-1-carboxamido)-N-(1H-pyrrolo[2,3-c]pyridin-5-yl)benzamide]	A (80-100)	50 to 100%	50 to 100%
Cn1ncc2cc(NC(=O)c3cc(NC(=O)[C@H]4[C@H](c5cc(Cl)cc(Cl)c5)C4(Cl)Cl)ccc3Cl)cnc21 (relative stereo) [F476, 2-Chloro-5-(trans)-(2,2-dichloro-3-(3,5-dichlorophenyl)cyclopropane-1-carboxamido)-N-(1-methyl-1H-pyrazolo[3,4-b]pyridin-5-yl)benzamide]	A (80-100)	50 to 100%	50 to 100%
Cc1ccc2c(N)nn(C(=O)c3cc(NC(=O)[C@H]4[C@H](c5cc(Cl)cc(Cl)c5)C4(Cl)Cl)ccc3Cl)c2c1 (relative stereo) [F477, (trans)-N-(3-(3-Amino-6-methyl-1H-indazole-1-carbonyl)-4-chlorophenyl)-2,2-dichloro-3-(3,5-dichlorophenyl)cyclopropane-1-carboxamide]	A (80-100)	50 to 100%	50 to 100%
Cc1ccc2c(NC(=O)c3cc(NC(=O)[C@H]4[C@H](c5cc(Cl)cc(Cl)c5)C4(Cl)Cl)ccc3Cl)n[nH]c2c1 (relative stereo) [F478, 2-Chloro-5-(trans)-(2,2-dichloro-3-(3,5-dichlorophenyl)cyclopropane-1-carboxamido)-N-(6-methyl-1H-indazol-3-yl)benzamide]	A (80-100)	50 to 100%	50 to 100%
Nc1ccc2c(c1)CN(C(=O)c1cc(NC(=O)[C@H]3[C@H](c4cc(Cl)cc(Cl)c4)C3(Cl)Cl)ccc1Cl)C2 (relative stereo) [F479, (trans)-N-(3-(5-Aminoisoindoline-2-carbonyl)-4-chlorophenyl)-2,2-dichloro-3-(3,5-dichlorophenyl)cyclopropane-1-carboxamide]	A (80-100)	50 to 100%	50 to 100%
